From ChEMBL document CHEMBL1150317, “Discovery of aryl aminoquinazoline pyridones as potent, selective, and orally efficacious inhibitors of receptor tyrosine kinase c-Kit” (J Med Chem, 2008)

Columns and labels:
[1] = target: Proto-oncogene tyrosine-protein kinase Src (Homo sapiens, UniProt P12931)
[2] = target: Vascular endothelial growth factor receptor 2 (Homo sapiens, UniProt P35968)
[3] = target: Tyrosine-protein kinase Lck (Homo sapiens, UniProt P06239)
[4] = Inhibition of p38 by TR-FRET assay
[5] = target: T1, Mast/stem cell growth factor receptor Kit (Homo sapiens, UniProt P10721)
[6] = target: T1, Mast/stem cell growth factor receptor Kit; remark: listed apart in the source
[7] = Cmax in Sprague-Dawley rat at 2 mg/kg, po; type: ADME, organism-based; parameters: dose 2 mg/kg, route oral; conditions: in vivo
[8] = Half life in Sprague-Dawley rat at 2 mg/kg, po; type: ADME, organism-based; parameters: dose 2 mg/kg, route oral; conditions: in vivo
[9] = AUC (0 to t) in Sprague-Dawley rat at 2 mg/kg, po; type: ADME, organism-based; parameters: dose 2 mg/kg, route oral; conditions: plasma
[10] = Oral bioavailability in Sprague-Dawley rat at 2 mg/kg; type: ADME, organism-based; conditions: in vivo
[11] = Clearance in Sprague-Dawley rat at 1 mg/kg, iv; type: ADME, organism-based; parameters: dose 1 mg/kg, route intravenous; conditions: in vivo
[12] = Volume of distribution at steady state in Sprague-Dawley rat at 1 mg/kg, iv; type: ADME, organism-based; parameters: dose 1 mg/kg, route intravenous; conditions: in vivo, read-out: Vdss

T1 sequence (P10721 whole entry): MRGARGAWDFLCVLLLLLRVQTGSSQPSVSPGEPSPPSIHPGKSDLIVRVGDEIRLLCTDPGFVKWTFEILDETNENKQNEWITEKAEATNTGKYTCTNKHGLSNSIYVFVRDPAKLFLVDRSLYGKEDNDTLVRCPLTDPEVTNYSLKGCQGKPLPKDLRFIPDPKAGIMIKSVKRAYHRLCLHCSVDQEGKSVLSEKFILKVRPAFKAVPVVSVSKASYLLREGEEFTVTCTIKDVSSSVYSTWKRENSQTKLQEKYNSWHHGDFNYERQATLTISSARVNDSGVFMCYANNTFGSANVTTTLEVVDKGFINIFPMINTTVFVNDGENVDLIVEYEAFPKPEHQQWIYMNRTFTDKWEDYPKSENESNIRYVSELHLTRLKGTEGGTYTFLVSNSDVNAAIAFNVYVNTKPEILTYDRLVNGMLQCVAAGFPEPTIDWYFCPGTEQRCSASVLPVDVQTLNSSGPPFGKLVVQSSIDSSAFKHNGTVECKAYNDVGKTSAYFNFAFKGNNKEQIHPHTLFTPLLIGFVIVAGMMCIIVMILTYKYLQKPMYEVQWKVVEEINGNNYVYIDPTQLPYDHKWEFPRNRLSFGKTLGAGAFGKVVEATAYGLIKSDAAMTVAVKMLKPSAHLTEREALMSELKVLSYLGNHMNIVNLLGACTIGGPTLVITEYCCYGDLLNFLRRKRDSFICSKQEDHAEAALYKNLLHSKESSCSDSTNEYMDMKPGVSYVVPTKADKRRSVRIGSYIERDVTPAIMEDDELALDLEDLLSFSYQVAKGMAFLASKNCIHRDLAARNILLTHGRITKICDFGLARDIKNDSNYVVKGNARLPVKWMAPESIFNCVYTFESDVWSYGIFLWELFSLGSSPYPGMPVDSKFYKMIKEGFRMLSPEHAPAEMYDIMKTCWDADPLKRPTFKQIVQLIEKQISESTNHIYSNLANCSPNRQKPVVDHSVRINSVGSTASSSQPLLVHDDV
Chain of Proto-oncogene tyrosine-protein kinase Src (P12931 2-536 limits assumed): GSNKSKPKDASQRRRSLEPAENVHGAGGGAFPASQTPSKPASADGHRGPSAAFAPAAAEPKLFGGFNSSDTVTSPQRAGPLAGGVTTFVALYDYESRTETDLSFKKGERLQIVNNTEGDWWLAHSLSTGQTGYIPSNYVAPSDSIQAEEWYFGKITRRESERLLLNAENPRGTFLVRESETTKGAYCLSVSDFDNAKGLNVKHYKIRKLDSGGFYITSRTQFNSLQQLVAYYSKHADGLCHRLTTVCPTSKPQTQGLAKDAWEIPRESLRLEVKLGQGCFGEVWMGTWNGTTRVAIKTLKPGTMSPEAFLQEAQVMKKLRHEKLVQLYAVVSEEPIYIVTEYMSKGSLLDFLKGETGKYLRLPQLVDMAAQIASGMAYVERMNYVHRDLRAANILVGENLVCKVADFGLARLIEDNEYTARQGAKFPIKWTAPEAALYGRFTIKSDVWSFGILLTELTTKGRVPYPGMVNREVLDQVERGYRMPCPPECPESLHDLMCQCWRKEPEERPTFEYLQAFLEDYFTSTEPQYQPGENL
Chain of Vascular endothelial growth factor receptor 2 (P35968 whole entry): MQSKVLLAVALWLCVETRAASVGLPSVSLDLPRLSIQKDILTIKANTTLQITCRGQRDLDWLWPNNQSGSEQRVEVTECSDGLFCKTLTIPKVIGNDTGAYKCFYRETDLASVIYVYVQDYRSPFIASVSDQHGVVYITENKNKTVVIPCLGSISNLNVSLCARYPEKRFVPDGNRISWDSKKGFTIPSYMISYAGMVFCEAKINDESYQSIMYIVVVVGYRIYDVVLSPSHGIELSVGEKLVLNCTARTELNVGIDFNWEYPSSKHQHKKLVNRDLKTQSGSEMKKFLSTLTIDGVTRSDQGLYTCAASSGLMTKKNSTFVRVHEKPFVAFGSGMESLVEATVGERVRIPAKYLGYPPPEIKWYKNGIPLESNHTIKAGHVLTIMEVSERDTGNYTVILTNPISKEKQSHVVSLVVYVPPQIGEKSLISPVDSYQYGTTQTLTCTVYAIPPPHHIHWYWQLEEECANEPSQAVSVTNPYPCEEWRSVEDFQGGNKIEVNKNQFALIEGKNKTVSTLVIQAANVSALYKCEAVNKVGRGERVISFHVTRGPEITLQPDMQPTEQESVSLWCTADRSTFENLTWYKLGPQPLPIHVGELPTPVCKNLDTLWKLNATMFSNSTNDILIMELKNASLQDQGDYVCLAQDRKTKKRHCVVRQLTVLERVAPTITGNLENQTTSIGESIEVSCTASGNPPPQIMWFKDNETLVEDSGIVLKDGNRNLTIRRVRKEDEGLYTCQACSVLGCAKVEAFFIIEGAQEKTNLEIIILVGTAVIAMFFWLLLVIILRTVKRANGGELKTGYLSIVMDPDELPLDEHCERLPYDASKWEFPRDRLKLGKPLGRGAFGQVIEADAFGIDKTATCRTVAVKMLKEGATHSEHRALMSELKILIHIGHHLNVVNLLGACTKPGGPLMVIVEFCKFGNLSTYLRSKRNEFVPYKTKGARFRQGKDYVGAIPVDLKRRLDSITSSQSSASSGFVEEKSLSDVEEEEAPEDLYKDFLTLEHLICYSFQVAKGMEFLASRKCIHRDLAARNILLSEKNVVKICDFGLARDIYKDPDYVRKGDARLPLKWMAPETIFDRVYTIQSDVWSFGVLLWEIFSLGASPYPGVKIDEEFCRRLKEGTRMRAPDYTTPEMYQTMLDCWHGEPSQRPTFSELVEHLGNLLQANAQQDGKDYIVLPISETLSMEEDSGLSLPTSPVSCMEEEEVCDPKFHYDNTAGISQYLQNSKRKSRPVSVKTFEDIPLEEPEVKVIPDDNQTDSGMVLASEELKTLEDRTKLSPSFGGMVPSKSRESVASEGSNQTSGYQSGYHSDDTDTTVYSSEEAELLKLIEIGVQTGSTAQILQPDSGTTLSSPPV
Chain of Tyrosine-protein kinase Lck (P06239 whole entry): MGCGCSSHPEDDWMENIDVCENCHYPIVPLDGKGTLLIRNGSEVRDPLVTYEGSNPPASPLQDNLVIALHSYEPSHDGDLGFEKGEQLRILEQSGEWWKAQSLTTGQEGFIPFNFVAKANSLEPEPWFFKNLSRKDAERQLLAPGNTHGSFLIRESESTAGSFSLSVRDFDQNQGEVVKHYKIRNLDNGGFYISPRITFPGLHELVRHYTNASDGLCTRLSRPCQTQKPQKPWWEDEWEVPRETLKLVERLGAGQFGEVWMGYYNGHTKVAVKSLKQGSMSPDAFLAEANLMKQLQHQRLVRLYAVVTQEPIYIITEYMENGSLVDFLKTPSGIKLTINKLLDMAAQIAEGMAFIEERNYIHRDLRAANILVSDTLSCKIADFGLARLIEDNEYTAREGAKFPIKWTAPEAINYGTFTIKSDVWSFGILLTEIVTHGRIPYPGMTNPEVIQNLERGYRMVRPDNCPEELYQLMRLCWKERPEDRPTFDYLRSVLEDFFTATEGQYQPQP

| Structure (SMILES) | IC50 [1] [nM] | IC50 [2] [nM] | IC50 [3] [nM] | IC50 [4] [nM] | IC50 [6] [nM] | Cmax [7] [ng/mL] | half-life [8] [h] | AUC(0-t) [9] [ng·h/mL] | bioavailability [10] [%] | clearance [11] [mL/min/kg] | Vd [12] [L/kg] | IC50 [5] [nM] |
| --- | --- | --- | --- | --- | --- | --- | --- | --- | --- | --- | --- | --- |
| COc1ccc(-n2ccc(C)c(-c3ccc4nc(N)ncc4c3)c2=O)cc1 | 150 | > 5000 | 150 | 6500 |  |  |  |  |  |  |  |  |
| Cc1ccn(-c2ccc(C(C)(C)C)cc2)c(=O)c1-c1ccc2nc(N)ncc2c1 | 36 | 11 | 7.2 | 28 | 16 |  |  |  |  |  |  | 2.1 |
| Cc1ccn(-c2ccc3c(c2)NCC3(C)C)c(=O)c1-c1ccc2nc(N)ncc2c1 | 400 |  | 19 | 200 |  |  |  |  |  |  |  | 6.1 |
| Cc1ccn(CCC2CCCC2)c(=O)c1-c1ccc2nc(N)ncc2c1 | 800 | 1400 | 580 | 5800 |  |  |  |  |  |  |  | 1 |
| CCOC(=O)c1ccc(-n2ccc(C)c(-c3ccc4nc(N)ncc4c3)c2=O)cc1 | 170 | > 5000 | 230 | 7500 | 68 |  |  |  |  |  |  |  |

Now from value to compound, other results behind:

| IC50 [1] [nM] | IC50 [2] [nM] | IC50 [3] [nM] | IC50 [4] [nM] | IC50 [6] [nM] | Cmax [7] [ng/mL] | half-life [8] [h] | AUC(0-t) [9] [ng·h/mL] | bioavailability [10] [%] | clearance [11] [mL/min/kg] | Vd [12] [L/kg] | Structure (SMILES) | IC50 [5] [nM] |
| --- | --- | --- | --- | --- | --- | --- | --- | --- | --- | --- | --- | --- |
| 390 | > 5000 | 480 | 9200 |  |  |  |  |  |  |  | Cc1ccn(-c2ccc(Cl)c(F)c2)c(=O)c1-c1ccc2nc(N)ncc2c1 |  |
| 990 | > 1000 | 1700 |  |  |  |  |  |  |  |  | Cc1ccn(-c2ccccc2)c(=O)c1-c1ccc2nc(N)ncc2c1 | 210 |
| 25000 | > 5000 | 25000 | 40000 | 12 | 280 | 2.9 | 1310 | 100 | 32.5 | 2.39 | Cc1ccc(-n2ccc(C)c(-c3ccc4nc(N)ncc4c3)c2=O)cc1F |  |
| 260 | > 5000 | 340 | 4900 | 14 |  |  |  |  |  |  | Cc1ccn(-c2ccc(Cl)cc2)c(=O)c1-c1ccc2nc(N)ncc2c1 |  |
